Measurements as given in US6737383B1, “Herbicidal oxadiazolidines” (priority 1999, dated 2004).

Key:
giant foxtail = test: Test B pre/postemergence giant foxtail; format: in vivo, Setaria faberii
Outline: (§1)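 Herbicidal effect was estimated by eye on a ten-point control scale after plants spent twelve to sixteen days in a greenhouse following soil or foliar treatment. Foliar sprays targeted plants at one to four leaves; all doses were formulated in a non-phytotoxic solvent with surfactant.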

morningglory = test: Test B pre/postemergence morningglory; format: in vivo, Ipomoea hederacea
Outline: as §1

corn = test: Test B pre/postemergence corn; format: in vivo, Zea mays
Outline: as §1

sugar beet = test: Test B pre/postemergence sugar beet; format: in vivo, Beta vulgaris; details: for Plant response rating, Sugarbeets: Rate 250 g/ha
Outline: as §1

purple nutsedge = test: Test B pre/postemergence purple nutsedge; format: in vivo, Cyperus rotundus
Outline: as §1

surinam grass = test: Test B pre/postemergence surinam grass; format: in vivo, Brachiaria decumbens
Outline: as §1

blackgrass = test: Test B pre/postemergence blackgrass; format: in vivo, Alopecurus myosuroides
Outline: as §1

velvetleaf = test: Test B pre/postemergence velvetleaf; format: in vivo, Abutilon theophrasti; details: for Plant response rating, Velvetleaf: Rate 250 g/ha
Outline: as §1

rape = test: Test B pre/postemergence rape; format: in vivo, Brassica napus
Outline: as §1

bedstraw = test: Test B pre/postemergence bedstraw; format: in vivo, Galium aparine
Outline: as §1

pigweed = test: Test B pre/postemergence pigweed; format: in vivo, Amaranthus retroflexus
Outline: as §1

soybean = test: Test B pre/postemergence soybean; format: in vivo, Glycine max
Outline: as §1

wheat = test: Test B pre/postemergence wheat; format: in vivo, Triticum aestivum; details: for Plant response rating, Wheat: Rate 250 g/ha
Outline: as §1

wild oat = test: Test B pre/postemergence wild oat; format: in vivo, Avena fatua; details: for Plant response rating, Wild oats: Rate 250 g/ha
Outline: as §1

cocklebur = test: Test B pre/postemergence cocklebur; format: in vivo, Xanthium strumarium
Outline: as §1

crabgrass = test: Test B pre/postemergence crabgrass; format: in vivo, Digitaria sanguinalis
Outline: as §1

[1] = Postemergence, Rate 125 g/ha, scale of 0 to 10 where 0 is no effect and 10 is complete control
[2] = Postemergence, Rate 250 g/ha, scale 0 to 10, 0 no effect, 10 complete control
[3] = Preemergence, Rate 31 g/ha, visual rating, scale 0 to 10 (0 no effect, 10 complete control)
[4] = Preemergence, Rate 62 g/ha, scale 0 to 10 (0 no effect, 10 complete control)
[5] = Preemergence, Rate 125 g/ha, scale 0 to 10 (0 no effect, 10 complete control)
[6] = Preemergence, Rate 250 g/ha, scale of 0 to 10 where 0 is no effect and 10 is complete control
[7] = Rate 31 g/ha, Postemergence, scale 0 to 10
[8] = Rate 62 g/ha, Postemergence, scale of 0 to 10 where 0 is no effect and 10 is complete control
[9] = Preemergence, Rate 125 g/ha, 0 is no effect, 10 is complete control
[10] = Preemergence, scale of 0 to 10 where 0 is no effect and 10 is complete control
[11] = Postemergence, scale 0 to 10, 0 is no effect, 10 is complete control
[12] = Postemergence, Rate 62 g/ha, scale 0 to 10, 0 is no effect, 10 is complete control
[13] = Rate 125 g/ha, Postemergence, scale 0 to 10, 0 no effect, 10 complete control
[14] = Rate 250 g/ha, Postemergence, scale 0 to 10, 0 is no effect, 10 is complete control

Cc1onc(-c2ccccc2)c1-n1c(=O)on(C(=O)N(c2ccc(F)cc2)C(C)C)c1=O [Compound 100]
0: Giant foxtail plant response rating (giant foxtail; [1]) | Giant foxtail plant response rating (giant foxtail; [2]) | Giant foxtail plant response rating (giant foxtail; [3]) | Giant foxtail plant response rating (giant foxtail; [4]) | Plant response rating, Giant foxtail (giant foxtail; [5]) | Plant response rating, Giant foxtail (giant foxtail; [6]) | Giant foxtail plant response rating (giant foxtail; [7]) | Giant foxtail plant response rating (giant foxtail; [8]) | Morningglory plant response rating (morningglory; [1]) | Morningglory plant response rating (morningglory; [2]) | Morningglory plant response rating (morningglory; [3]) | Morningglory plant response rating (morningglory; [4]) | Plant response rating, Morningglory (morningglory; [5]) | Plant response rating, Morningglory (morningglory; [6]) | Morningglory plant response rating (morningglory; [7]) | Morningglory plant response rating (morningglory; [8]) | Corn plant response rating (corn; [1]) | Corn plant response rating (corn; [2]) | Corn plant response rating (corn; [3]) | Corn plant response rating (corn; [4]) | Plant response rating, Corn (corn; [5]) | Plant response rating, Corn (corn; [6]) | Corn plant response rating (corn; [7]) | Corn plant response rating (corn; [8]) | Sugarbeets plant response rating (sugar beet; [1]) | Sugarbeets plant response rating (sugar beet; [3]) | Sugarbeets plant response rating (sugar beet; [4]) | Sugarbeets plant response rating (0 to 10 scale) (sugar beet; [9]) | Plant response rating, Sugarbeets (sugar beet; [10]) | Sugarbeets plant response rating (sugar beet; [8]) | Plant response rating, Sugarbeets (sugar beet; [11]) | Nutsedge plant response rating (purple nutsedge; [1]) | Nutsedge plant response rating (purple nutsedge; [2]) | Nutsedge plant response rating (purple nutsedge; [3]) | Nutsedge plant response rating (purple nutsedge; [4]) | Plant response rating, Nutsedge (purple nutsedge; [5]) | Plant response rating, Nutsedge (purple nutsedge; [6]) | Nutsedge plant response rating (purple nutsedge; [7]) | Nutsedge plant response rating (purple nutsedge; [8]) | B. signalgrass plant response rating (surinam grass; [12]) | B. signalgrass plant response rating (surinam grass; [2]) | B. signalgrass plant response rating (surinam grass; [3]) | B. signalgrass plant response rating (surinam grass; [4]) | Plant response rating, B. signalgrass (surinam grass; [5]) | Plant response rating, B. signalgrass (surinam grass; [6]) | B. signalgrass plant response rating (surinam grass; [7]) | B. signalgrass plant response rating (surinam grass; [13]) | Blackgrass plant response rating (blackgrass; [1]) | Blackgrass plant response rating (blackgrass; [2]) | Blackgrass plant response rating (blackgrass; [3]) | Blackgrass plant response rating (blackgrass; [4]) | Plant response rating, Blackgrass (blackgrass; [5]) | Plant response rating, Blackgrass (blackgrass; [6]) | Blackgrass plant response rating (blackgrass; [7]) | Blackgrass plant response rating (blackgrass; [8]) | Velvetleaf plant response rating (velvetleaf; [1]) | Velvetleaf plant response rating (velvetleaf; [3]) | Velvetleaf plant response rating (velvetleaf; [4]) | Velvetleaf plant response rating (0 to 10 scale) (velvetleaf; [9]) | Plant response rating, Velvetleaf (velvetleaf; [10]) | Velvetleaf plant response rating (velvetleaf; [8]) | Plant response rating, Velvetleaf (velvetleaf; [11]) | Rape plant response rating (rape; [1]) | Rape plant response rating (rape; [2]) | Rape plant response rating (rape; [3]) | Rape plant response rating (rape; [4]) | Plant response rating, Rape (rape; [5]) | Plant response rating, Rape (rape; [6]) | Rape plant response rating (rape; [7]) | Rape plant response rating (rape; [8]) | Bedstraw plant response rating (bedstraw; [12]) | Bedstraw plant response rating (bedstraw; [2]) | Bedstraw plant response rating (bedstraw; [4]) | Plant response rating, Bedstraw (bedstraw; [6]) | Bedstraw plant response rating (bedstraw; [7]) | Bedstraw plant response rating (bedstraw; [13]) | Redroot pigweed plant response rating (pigweed; [1]) | Redroot pigweed plant response rating (pigweed; [3]) | Redroot pigweed plant response rating (pigweed; [4]) | Plant response rating, Redroot pigweed (pigweed; [5]) | Plant response rating, Redroot pigweed (pigweed; [6]) | Redroot pigweed plant response rating (pigweed; [7]) | Redroot pigweed plant response rating (pigweed; [8]) | Plant response rating, Redroot pigweed (pigweed; [14]) | Soybean plant response rating (soybean; [1]) | Soybean plant response rating (soybean; [3]) | Soybean plant response rating (soybean; [4]) | Plant response rating, Soybean (soybean; [5]) | Plant response rating, Soybean (soybean; [6]) | Soybean plant response rating (soybean; [8]) | Plant response rating, Soybean (soybean; [14]) | Wheat plant response rating (wheat; [1]) | Wheat plant response rating (wheat; [3]) | Wheat plant response rating (wheat; [4]) | Wheat plant response rating (0 to 10 scale) (wheat; [9]) | Plant response rating, Wheat (wheat; [10]) | Wheat plant response rating (wheat; [8]) | Plant response rating, Wheat (wheat; [11]) | Wild oats plant response rating (wild oat; [1]) | Wild oats plant response rating (wild oat; [3]) | Wild oats plant response rating (wild oat; [4]) | Wild oats plant response rating (0 to 10 scale) (wild oat; [9]) | Plant response rating, Wild oats (wild oat; [10]) | Wild oats plant response rating (wild oat; [8]) | Plant response rating, Wild oats (wild oat; [11]) | Cocklebur plant response rating (cocklebur; [1]) | Cocklebur plant response rating (cocklebur; [2]) | Cocklebur plant response rating (cocklebur; [3]) | Cocklebur plant response rating (cocklebur; [4]) | Plant response rating, Cocklebur (cocklebur; [5]) | Plant response rating, Cocklebur (cocklebur; [6]) | Cocklebur plant response rating (cocklebur; [7]) | Cocklebur plant response rating (cocklebur; [8]) | Crabgrass plant response rating (crabgrass; [1]) | Crabgrass plant response rating (crabgrass; [2]) | Crabgrass plant response rating (crabgrass; [3]) | Crabgrass plant response rating (crabgrass; [4]) | Plant response rating, Crabgrass (crabgrass; [5]) | Plant response rating, Crabgrass (crabgrass; [6]) | Crabgrass plant response rating (crabgrass; [7]) | Crabgrass plant response rating (crabgrass; [8])
